One experiment has as its target T1, PRG2 (Homo sapiens, UniProt P13727).
T1 sequence (P13727 106-222): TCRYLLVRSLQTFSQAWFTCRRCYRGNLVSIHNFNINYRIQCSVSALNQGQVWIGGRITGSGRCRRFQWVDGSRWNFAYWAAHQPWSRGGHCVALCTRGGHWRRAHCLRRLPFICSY
The conditions noted are these: cited from earlier work.

Experiment [1] is described as follows: Liposomes loaded with cell cycle blocking agents and FLA before OVA/CpG vaccination. It counts as in vivo, mice. The conditions noted are these: liposomes i.p. day 1, 100 ug OVA/10 ug CpG day 2. How it is done: FIGS. 42A-42D. […] Liposomes were loaded with two agents to block cell cycle (Cytoclastin D, CytoD, which blocks cells in G1 phase and Nocodozole, Noco, which blocks cells in G2 phase) as well as flagellin(FLA) as an TLR agonist. Mice were injected with 200 uL of 10 mM total lipid liposomes containing either (1) PBS only, Blank (2) FLA, 1 ug total per injection (3) FLA and 100 ug CytoD or (4) FLA+20 ug Noco. Mice were injected i.p with liposomes on day 1, then injected with 100 ug OVA/10 ug CpG (free formulation) on day 2 also i.p. Sera was collected via cheek bleed 1 hr after OVA/CpG injection. Mice were then sac'd on day 10 to observe anti-OVA Ig. Serum levels 1 h after injection for (FIG. 42A) IL-4, (FIG. 42B) MCP-1 and (FIG. 42C) TNF-a. (FIG. 42D) Total anti-OVA Ig on […]. N=5 mice per group.
(§1) Additional characterization and targeting of first responder dendritic cells (FRs) was performed.

For another experiment, the system named is BMDCs. The experiment is described as follows: Nocodazole treated BMDCs, MP uptake and % FRs by imagestream. Type of experiment: cell-based, mouse. The conditions noted are these: 10 nM Nocodazole for 20 hrs prior to MP treatment, versus NT. How it is done:
FIGS. 39A-39E. FRs are more likely actively dividing. (FIG. 39A) 1 million BMDCs were incubated with 1 million MP-TLR4 for 15 mins, washed and stain with Hoest for nuclear stain (0.1 ug/mL) and anti-CD11c antibody. […] (FIG. 39B) Graph of imagestream data from FIG. 39A from an N=3 showing that most BMDC FRs are in G2 phase. (FIG. 39C) 1 million BMDCs were similarly treated as in FIG. 39A, except some samples were treated with 10 nM Nocodazole for 20 hrs prior to MP-TLR4 treatment. NT=non-treated, Noco=Nocodazole treated. (FIG. 39D) Similar to FIG. 39C, BMDCs were treated with MP-TLR7 or Blank MPs (1:1 particles/cells) for 15 mins, then tested via imagestream. Total MP uptake per 100 k BMDCs were calculated for either NT or Noco treated samples. […] N=3, Error bars indicate +/−SD.

The next experiment addresses DAP12 (Homo sapiens, UniProt O43914). Particulars: cited from earlier work.
The test system of another experiment is FRs. As to the kind of experiment: CD206 targeting peptide liposomes, FR targeting in BMDCs and splenocytes. Type of experiment: cell-based, mouse. Particulars: lipid-peptide in 200 nm liposomes at 1% total lipid, in combination with heparin or GFLSKSLVF
How it is done: FIGS. 48A-48B. FR targeting peptides. A peptide targeting CD206 as described in a study by Ghebremedhin et al (Ghebremedhin A, Salam AB, Adu-Addai B, et al. Preprint. bioRxiv. 2020;2020.07.27.218115; incorporated herein by reference), having sequence RWKFGGFKWR (SEQ ID NO:2), was synthesized using the same lipid-peptide display technique as shown previously and incorporated into 200 nm liposomes at 1% total lipid. (FIG. 48A) 200K BMDCs were incubated with liposomes at either 1 or 10 uM total lipid concentration for 15 mins, then incubated with MP-TLR4 (200K) for 15 mins, washed and stained. The liposomal RFU is plotted for various formulations. MMR=CD206 targeting lipid at 1% total lipid, DAP12=DAP12 targeting lipid at 1% total lipid, Hep=heparin-lipid conjugate at 10% total lipid. (FIG. 48B) similar to part A, but using 2 million splenocytes and gating on all CD11c+ cells.
as §1

Consider five compounds from patent US20240226292A1, “METHODS AND COMPOSITIONS FOR TARGETING OF ANTIGENS AND OTHER POLYPEPTIDES TO FIRST RESPONDER DENDRITIC CELLS” (THE UNIVERSITY OF CHICAGO, priority 2021, published 2024).

Sequence of DAP12 (O43914 22-113, species assumed): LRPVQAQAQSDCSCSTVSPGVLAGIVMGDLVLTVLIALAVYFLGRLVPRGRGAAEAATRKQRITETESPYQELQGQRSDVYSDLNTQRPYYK

On to heparin, for which the “affinity to PRG2” value at PRG2 is given as “moderate affinity”.

For `C=C1[C@@H](C)[C@H]2[C@H](Cc3ccccc3)NC(=O)[C@]23[C@H](OC(C)=O)/C=C/[C@@](C)(O)C(=O)[C@@H](C)C/C=C/[C@H]3[C@@H]1O` [Cytoclastin D], the vaccine response entry in experiment [1] is on record as “increases vaccine response”.

Regarding `COC(=O)Nc1nc2cc(C(=O)c3cccs3)ccc2[nH]1` [Noco, Nocodazole], the “total % of FRs” value with BMDCs is “increases in FR population”.

In the case of GFLSKSLVF, the “binding to DAP12” value with DAP12 is on record as “selectively binding”.

Turning to “RWKFGGFKWR [peptide targeting CD206 as described by Ghebremedhin et al]”, in the experiment with FRs, the “identification and targeting of FRs” value was “can identify and target FRs”.
